The values that follow come from patent US10508109B2 (priority 2015, dated 2019).

One experiment deals with A549. In words: Cell-based assay, anti-proliferative activity (Cell Counting Kit-8, 72 hours). As to conditions: Homo sapiens; A549 cells, Cell Counting Kit-8, 72 hours; read-out: IC50 (μM) A549. Summed up:
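IC50 values come from growth read-outs taken after the cells' exposure to each candidate inhibitor. Cells had been plated in 96-well microtiter plates beforehand.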

The subject of a further experiment is CCD-18Co. The description is as above. As to conditions: Homo sapiens; CCD-18Co cells, Cell Counting Kit-8, 72 hours; read-out: IC50 (μM) CCD-18Co. An outline of the steps:
(§1)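 Cells seeded at 2,000–3,000 per well and exposed 72 h to compound at 0–100 micro-M (2-fold series). Growth measured with CCK-8; IC50 taken as anti-proliferative indicator.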

The subject of the next experiment is HCT-116. The description is as above. As to conditions: Homo sapiens; HCT-116 cells, Cell Counting Kit-8, 72 hours; read-out: IC50 (μM) HCT-116. An outline of the steps:
as §1

The subject of the next experiment is HFL1. The experiment is described as above. To be noted: Homo sapiens; HFL1 cells, Cell Counting Kit-8, 72 hours; read-out: IC50 (μM) HFL1. An outline of the steps: as §1
The subject of a further experiment is PC14. The experiment is described as above. As to conditions: Homo sapiens, PC-14; PC14 cells, Cell Counting Kit-8, 72 hours; read-out: IC50 (μM) PC14. An outline of the steps: as §1
Another experiment has as its target SUV39H2 (Homo sapiens (Human), UniProt Q9H5I1). To be noted: read-out: IC50 (μM) Suv 39H2 assay; enzyme assay.

Sequence of SUV39H2 (Q9H5I1 whole entry): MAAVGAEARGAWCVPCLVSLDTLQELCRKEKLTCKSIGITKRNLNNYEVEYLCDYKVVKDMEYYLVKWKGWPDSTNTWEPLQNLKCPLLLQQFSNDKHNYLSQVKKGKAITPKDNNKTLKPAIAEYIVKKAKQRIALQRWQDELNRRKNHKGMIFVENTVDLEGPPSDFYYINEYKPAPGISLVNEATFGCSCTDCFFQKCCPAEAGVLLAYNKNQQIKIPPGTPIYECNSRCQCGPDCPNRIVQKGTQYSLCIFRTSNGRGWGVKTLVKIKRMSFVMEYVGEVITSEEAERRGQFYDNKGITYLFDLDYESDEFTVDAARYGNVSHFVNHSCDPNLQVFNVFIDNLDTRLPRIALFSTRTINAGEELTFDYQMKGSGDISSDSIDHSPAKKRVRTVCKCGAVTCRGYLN

For `COc1cc(OC)c(-c2cn3ccc(N4CCC(CCN(C)C)CC4)cc3n2)cc1Cl` [Example 94, 2-(1-(2-(5-chloro-2,4-dimethoxyphenyl)imidazo[1,2-a]pyridin-7-yl)piperidin-4-yl)-N,N-dimethylethanamine], the half-inhibitory concentration (IC50) in the experiment on A549 worked out at 2.5 µM; in the experiment with CCD-18Co it was 3.6 µM; in the experiment on HCT-116, 2.7 µM; in the experiment on HFL1, 4.5 µM; in the experiment with PC14 it was 2.3 µM; at SUV39H2, 0.00887 µM.

In the case of `COc1cc(OC)c(-c2cn3ccc(N4CCN(CC#N)CC4)cc3n2)cc1Cl` [Example 95, 2-(4-(2-(5-chloro-2,4-dimethoxyphenyl)imidazo[1,2-a]pyridin-7-yl)piperazin-1-yl)acetonitrile], the IC50 came out at 2.9 µM with A549; 5.3 µM in the experiment with CCD-18Co; 3.4 µM with HCT-116; 4.1 µM with HFL1; 3 µM in the experiment on PC14; 0.00807 µM on SUV39H2.

For `COCCCN1CCN(c2ccn3cc(-c4cc(Cl)c(OC)cc4OC)nc3c2)CC1` [Example 96, 2-(5-chloro-2,4-dimethoxyphenyl)-7-(4-(3-methoxypropyl)piperazin-1-yl)imidazo[1,2-a]pyridine], the half-maximal inhibitory concentration (IC50) with A549 came to 6.9 µM; with CCD-18Co, 6.8 µM; in the experiment with HCT-116 it was 9 µM; in the experiment with HFL1, 8.4 µM; in the experiment on PC14, 6.4 µM; on SUV39H2, 0.00833 µM.

On to `COc1cc(OC)c(-c2cn3ccc(N4CCC(CN(C)C)CC4)cc3n2)cc1Cl` [Example 97, 1-(1-(2-(5-Chloro-2,4-dimethoxyphenyl)imidazo[1,2-a]pyridin-7-yl)piperidin-4-yl)-N,N-dimethylmethanamine], for which the IC50 in the experiment on A549 worked out at 3.2 µM; with CCD-18Co, 6.5 µM; in the experiment with HCT-116, 2.8 µM; in the experiment with HFL1 it was 2.4 µM; with PC14 it was 2.3 µM; at SUV39H2, 0.00768 µM.

On to `COC(=O)N1CCN(c2ccn3cc(-c4cc(Cl)c(OC)cc4OC)nc3c2)CC1` [Example 99, methyl 4-[2-(5-chloro-2,4-dimethoxyphenyl)imidazo[1,2-a]pyridine-7-yl]piperazine-1-carboxylate], for which the half-inhibitory concentration (IC50) worked out at 1.5 µM in the experiment with A549; 1.6 µM with CCD-18Co; 1.5 µM in the experiment with HCT-116; 1.8 µM in the experiment on HFL1; 1.9 µM in the experiment on PC14; 0.00606 µM at SUV39H2.

Consider `COc1cc(OC)c(-c2cn3ccc(N4CCN(S(=O)(=O)C5CC5)CC4)cc3n2)cc1Cl` [Example 103, 2-(5-chloro-2,4-dimethoxyphenyl)-7-[4-(cyclopropylsulfonyl)piperazin-1-yl]imidazo[1,2-a]pyridine], for which the IC50 was 1.3 µM with A549; 1.6 µM with CCD-18Co; 0.55 µM in the experiment on HCT-116; 0.61 µM in the experiment on HFL1; 0.7 µM with PC14; 0.0103 µM at SUV39H2.

`COc1cc(OC)c(-c2cn3ccc(N4CCN(CCF)CC4)cc3n2)cc1Cl` [Example 104, 2-(5-chloro-2,4-dimethoxyphenyl)-7-(4-(2-fluoroethyl)piperazin-1-yl)-imidazo[1,2-a]pyridine]: the IC50 in the experiment with A549 worked out at 6.7 µM; with CCD-18Co, 8.9 µM; in the experiment on HCT-116, 8.3 µM; in the experiment on HFL1 it was 4.2 µM; in the experiment with PC14, 4.7 µM; on SUV39H2 it was 0.00666 µM.

`COC(=O)NC1CCN(c2ccn3cc(-c4cc(Cl)c(OC)cc4OC)nc3c2)CC1` [Example 122, methyl (1-(2-(5-chloro-2,4-dimethoxyphenyl)imidazo[1,2-a]pyridin-7-yl)piperidin-4-yl)carbamate]: the IC50 in the experiment on A549 came out at 2.7 µM; in the experiment with CCD-18Co it was 6.4 µM; in the experiment on HCT-116, 5.8 µM; in the experiment on HFL1, 4.9 µM; in the experiment on PC14, 3.3 µM; on SUV39H2, 0.00814 µM.

Turning to `COc1cc(OC)c(-c2cn3ccc(N4CCC(NC(=O)C(C)(C)C)CC4)cc3n2)cc1Cl` [Example 123, N-(1-(2-(5-chloro-2,4-dimethoxyphenyl)imidazo[1,2-a]pyridin-7-yl)piperidin-4-yl)pivalamide], the IC50 in the experiment on A549 was 3.3 µM; with CCD-18Co, 3.4 µM; in the experiment on HCT-116, 2.6 µM; in the experiment with HFL1, 2 µM; in the experiment on PC14 it was 2.2 µM; on SUV39H2, 0.00771 µM.

With `COc1cc(OC)c(-c2cn3ccc(N4CCC(NC(C)=O)CC4)cc3n2)cc1Cl` [Example 124, N-{1-[2-(5-chloro-2,4-dimethoxyphenyl)imidazo[1,2-a]pyridin-7-yl]piperidin-4-yl}acetamide], the half-maximal inhibitory concentration (IC50) with A549 is 2.2 µM; in the experiment on CCD-18Co it was 3.1 µM; in the experiment on HCT-116, 1.9 µM; in the experiment with HFL1, 3.1 µM; in the experiment with PC14, 1.9 µM; on SUV39H2, 0.00327 µM.

On to `COc1cc(OC)c(-c2cn3ccc(C4CCC(N)CC4)cc3n2)cc1Cl` (stereo not drawn) [Example 125, 4-(2-(5-chloro-2,4-dimethoxyphenyl)imidazo[1,2-a]pyridin-7-yl)-cyclohexanamine], for which the IC50 is 2.3 µM in the experiment on A549; 2.9 µM in the experiment with CCD-18Co; 2.7 µM in the experiment with HCT-116; 2.7 µM in the experiment with HFL1; 5 µM with PC14; 0.0651 µM at SUV39H2.

For `COc1cc(OC)c(-c2cn3ccc(N4CCC(NS(=O)(=O)C5CC5)CC4)cc3n2)cc1Cl` [Example 126, N-{1-[2-(5-chloro-2,4-dimethoxyphenyl)imidazo[1,2-a]pyridin-7-yl]piperidin-4-yl}cyclopropanesulfonamide], the half-maximal inhibitory concentration (IC50) in the experiment on A549 was 2.1 µM; with CCD-18Co, 1.8 µM; with HCT-116, 1.9 µM; in the experiment with HFL1 it was 1.4 µM; in the experiment on PC14, 3.1 µM; at SUV39H2 it was 0.014 µM.

Consider `COc1cc(OCCCN(C)C)c(-c2cn3ccc(N4CCN(C(=O)OC(C)(C)C)CC4)cc3n2)cc1Cl` [Example 127, tert-butyl 4-(2-{5-chloro-2-[3-(dimethylamino)propoxy]-4-methoxyphenyl}imidazo[1,2-a]pyridin-7-yl)piperazine-1-carboxylate], for which the IC50 was 1.6 µM in the experiment with A549; 0.83 µM in the experiment with CCD-18Co; 1.2 µM with HCT-116; 0.5 µM in the experiment with HFL1; 1.6 µM with PC14; 0.0995 µM at SUV39H2.

With `COc1cc(OC)c(-c2cn3ccc(N4CCC(NS(C)(=O)=O)CC4)cc3n2)cc1Cl` [Example 128, N-{1-[2-(5-chloro-2,4-dimethoxyphenyl)imidazo[1,2-a]pyridin-7-yl]piperidin-4-yl}methanesulfonamide], the IC50 came to 1.5 µM in the experiment on A549; 1.1 µM in the experiment on CCD-18Co; 4.5 µM in the experiment on HCT-116; 0.58 µM with HFL1; 1.8 µM with PC14; 0.00883 µM at SUV39H2.

Consider `CCCCCNC1CCN(c2ccn3cc(-c4cc(Cl)c(OC)cc4OC)nc3c2)CC1` [Example 129, 1-[2-(5-chloro-2,4-dimethoxyphenyl)imidazo[1,2-a]pyridin-7-yl]-N-pentylpiperidin-4-amine], for which the half-inhibitory concentration (IC50) in the experiment with A549 stood at 1.5 µM; with CCD-18Co it was 1.3 µM; in the experiment on HCT-116, 0.74 µM; in the experiment with HFL1 it was 0.7 µM; in the experiment with PC14, 1.7 µM; on SUV39H2, 0.00841 µM.

Regarding `COc1cc(OC)c(-c2cn3ccc(N4CCN(CCCN(C)C)CC4)cc3n2)cc1Br` [Example 130, 3-(4-(2-(5-bromo-2,4-dimethoxyphenyl)imidazo[1,2-a]pyridin-7-yl)-piperazin-1-yl)-N,N-dimethylpropan-1-amine], the half-inhibitory concentration (IC50) was found to be 2.7 µM in the experiment with A549; 6.6 µM in the experiment with CCD-18Co; 2.8 µM with HCT-116; 4.6 µM in the experiment with HFL1; 2.6 µM with PC14; 0.003 µM on SUV39H2.

Regarding `COc1cc(OC)c(-c2cn3ccc(N4CCN(CCN5CCOCC5)CC4)cc3n2)cc1Br` [Example 131, 4-(2-(4-(2-(5-bromo-2,4-dimethoxyphenyl)imidazo[1,2-a]pyridin-7-yl)-piperazin-1-yl)ethyl)morpholine], the concentration for half-maximal inhibition (IC50) in the experiment with A549 was 8.3 µM; in the experiment on CCD-18Co it was 8.3 µM; in the experiment on HCT-116, 8.4 µM; with HFL1 it was 7.3 µM; in the experiment with PC14, 6.8 µM; at SUV39H2, 0.00349 µM.

With `CCOC(=O)CCN1CCN(c2ccn3cc(-c4cc(Cl)c(OC)cc4OC)nc3c2)CC1` [Example 132, ethyl 3-(4-(2-(5-chloro-2,4-dimethoxyphenyl)imidazo[1,2-a]pyridin-7-yl)piperazin-1-yl)propanoate], the IC50 with A549 came to 11 µM; in the experiment on CCD-18Co, 22 µM; in the experiment with HCT-116 it was 9.8 µM; with HFL1, 7.6 µM; in the experiment with PC14, 9 µM; at SUV39H2, 0.0124 µM.

As for `COc1cc(OC)c(-c2cn3ccc(C4=CCN(CCO)CC4)cc3n2)cc1Cl` [Example 134, 2-(4-(2-(5-chloro-2,4-dimethoxyphenyl)imidazo[1,2-a]pyridin-7-yl)-5,6-dihydropyridin-1(2H)-yl)ethanol], the IC50 with A549 stood at 5 µM; with CCD-18Co it was 5.4 µM; in the experiment on HCT-116, 6.8 µM; in the experiment on HFL1, 3.8 µM; with PC14 it was 5.3 µM; on SUV39H2 it was 0.0576 µM.
